We go through 4 compounds from patent US4481200A, “α2 -Adrenoceptor antagonistic benzoquinolizines” (John Wyeth & Brother, Limited, priority 1982, dated 1984).

One experiment has as its target T1, α2-adrenoceptor (Rattus norvegicus, UniProt P22909).
T1 construct: from tissue; host or cells: rat vas deferens
T1 sequence (P22909 1-465): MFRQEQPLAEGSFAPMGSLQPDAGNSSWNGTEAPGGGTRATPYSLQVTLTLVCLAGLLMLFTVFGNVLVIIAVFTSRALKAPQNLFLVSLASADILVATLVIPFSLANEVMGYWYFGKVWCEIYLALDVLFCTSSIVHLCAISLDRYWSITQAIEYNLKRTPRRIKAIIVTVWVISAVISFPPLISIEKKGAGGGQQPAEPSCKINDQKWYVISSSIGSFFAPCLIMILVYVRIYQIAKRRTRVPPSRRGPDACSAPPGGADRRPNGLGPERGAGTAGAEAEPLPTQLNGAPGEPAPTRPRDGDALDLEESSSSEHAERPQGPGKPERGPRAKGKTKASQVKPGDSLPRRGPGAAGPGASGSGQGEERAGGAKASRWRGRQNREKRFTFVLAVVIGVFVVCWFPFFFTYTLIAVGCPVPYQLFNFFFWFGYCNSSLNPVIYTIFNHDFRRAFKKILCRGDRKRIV
Kind of experiment: α2-adrenoceptor antagonistic activity on the rat field stimulated vas deferens preparation (clonidine as agonist). The settings on record: antagonism of clonidine, 37°, 90 min after introduction of antagonist, Arunlakshana & Schild, read-out: pA2 (α2) (converted). Here is the method: The compounds of the invention were tested for α2 -adrenoceptor antagonistic activity on the rat field stimulated vas deferens preparation using a modification of the method of Drew, Eur. J. Pharmac., 1977, 42, 123-130. The procedure is described below.
Desheathed vasa deferentia from sexually mature rats were suspended in a 6 ml organ bath in Krebs solution at 37° and bubbled with 5% CO2 in oxygen. Platinum ring electrodes were positioned above and below the tissue for field stimulation, The stimulus parameters being 0.1 Hz 1 ms pulse width at supramaximal voltage. Twitch responses were recorded isotonically with a 0.5 g loading. Clonidine hydrochloride was used as the α-adrenoceptor agonist and cumulative concentration-response curves were constructed for the inhibition of twitch obtained with clonidine in the range 0.125 to 4 ng ml^-1. After washing out clonidine, the twitch response quickly recovered and an antagonist was then introduced into the Krebs reservoir. Clonidine concentration-response curves were repeated 90 min after introduction of the antagonist. The concentration of clonidine producing 50% inhibition of twitch before and after introduction of antagonist were obtained and the dose-ratio for clonidine was calculated. Various concentrations of the antagonists were used.
Chemother., 1959, 14, 48-58 and the values of pA2 and slope were calculated.

In experiment [1] the target is T2, α1-adrenoceptor (Rattus norvegicus, UniProt P43140).
T2 construct: One method involves assessing the activity on the isolated anococcygeus muscle of the rat; from tissue; host or cells: rat anococcygeus muscle
T2 sequence (P43140 1-466): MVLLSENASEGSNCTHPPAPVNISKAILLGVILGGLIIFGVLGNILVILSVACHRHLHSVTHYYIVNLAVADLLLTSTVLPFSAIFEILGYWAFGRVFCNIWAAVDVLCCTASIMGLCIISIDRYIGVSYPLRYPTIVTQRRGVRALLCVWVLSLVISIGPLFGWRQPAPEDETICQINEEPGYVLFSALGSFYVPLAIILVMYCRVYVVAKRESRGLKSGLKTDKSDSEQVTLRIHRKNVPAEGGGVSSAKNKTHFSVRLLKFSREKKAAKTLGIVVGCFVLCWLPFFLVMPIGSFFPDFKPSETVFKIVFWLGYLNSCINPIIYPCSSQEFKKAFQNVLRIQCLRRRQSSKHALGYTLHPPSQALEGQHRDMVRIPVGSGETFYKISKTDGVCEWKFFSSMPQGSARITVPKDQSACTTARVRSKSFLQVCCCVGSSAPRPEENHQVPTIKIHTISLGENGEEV
Kind of experiment: α1 antagonistic activity on the isolated anococcygeus muscle of the rat (phenylephrine or methoxamine as agonist). The settings on record: antagonism of phenylephrine or methoxamine, rat anococcygeus muscle, 37°, 30 min equilibration, 10^-6 to 10^-4 M; Arunlakshana & Schild; read-out: pA2 (α1) (converted). An excerpt: (§1) The compounds of the invention antagonise the α2 -adrenoceptors to a much greater extent than the α1 -adrenoceptors. The α1 antagonistic activity can be evaluated by a number of different methods. One method involves assessing the activity on the isolated anococcygeus muscle of the rat. The method is based on that of Gillespie, Br.J.Pharmac., 1972, 45, 404-416. In the procedure male rats (250-360 g) are killed by a blow on the head and bled. The two anococcygeus muscles are removed from their position in the midline of the pelvic cavity, where they arise from the upper coccygeal vertebrae. The muscles are suspended in 5 ml organ baths in Krebs solution containing 10^-4 M ascorbic acid, to prevent drug oxidation. The tissues are gassed with a 95% oxygen, 5% CO2 mixture and maintained at 37°. Longitudinal muscle contractions are recorded using isotonic transducers. Cumulative dose response curves are then obtained to phenylephrine or in some cases methoxamine, both agents being […] alpha adrenoceptor agonists. The concentration range of phenylephrine or methoxamine used is 0.02 to 0.8 μg.ml^-1. The agonist is then washed from the bath and the test drug added to the bathing medium at a concentration of 10^-6 M. After 30 min equilibration with the test drug a further agonist dose response curve is obtained. The washing, equilibration and agonists dosing procedures are then repeated using 10^-5 M and 10^-4 M solutions of the test drug. Estimates of the pA2 value for the test drug as an antagonist of phenylephrine or methoxamine were made from the agonist dose-ratios using the method of Arunlakshana & Schild, Br.J.Pharmac. Chemother., 1959, 14, 48-58.

The test system of experiment [2] is α1-adrenoceptor. The description is as above. The settings on record: antilog of (α2 pA2-α1 pA2).
Text: as §1

Consider `CN(C)S(=O)(=O)N(C)[C@@H]1CCN2CCc3ccccc3[C@@H]2C1` (relative stereo) [Example 2, N,N,N'-Trimethyl-N'-[1,3,4,6,7,11bα-hexahydro-2H-benzo[a]quinolizin-2β-yl]sulphamide], for which the Kb is 39.8 nM on α2-adrenoceptor and 1120 nM on α1-adrenoceptor [1]. Moreover, in the experiment on α1-adrenoceptor [2], the α2/α1 selectivity stood at 28.

As to `CC(C)NS(=O)(=O)N(C)[C@@H]1CCN2CCc3ccccc3[C@@H]2C1` (relative stereo) [Example 4, N-(i-Propyl)-N'-(1,3,4,6,7,11bα-hexahydro-2H-benzo[a]quinolizin-2β-yl)-N'-methylsulphamide], the Kb was 37.2 nM on α2-adrenoceptor and 363 nM at α1-adrenoceptor [1]. Besides, the α2/α1 selectivity in the experiment with α1-adrenoceptor [2] was 10.

Turning to `CN(C)CCS(=O)(=O)N(C)[C@@H]1CCN2CCc3ccccc3[C@@H]2C1` (relative stereo) [Example 3, N-Methyl-N-(1,3,4,6,7,11bα-hexahydro-2H-benzo[a]quinolizin-2β-yl)-2-dimethylaminoethanesulphonamide], the Kb at α2-adrenoceptor was 55 nM; on α1-adrenoceptor [1], 2510 nM. Moreover, in the experiment on α1-adrenoceptor [2], the α2/α1 selectivity is recorded as 46.

As for `CNS(=O)(=O)N(C)[C@@H]1CCN2CCc3ccccc3[C@@H]2C1` (relative stereo) [Example 1, N-Methyl-N-(1,3,4,6,7,11bα-hexahydro-2H-benzo[a]quinolizin-2β-yl)-N'-methylsulphamide], the Kb is 36.3 nM at α2-adrenoceptor and 646 nM on α1-adrenoceptor [1]. In the experiment on α1-adrenoceptor [2], this compound displayed a α2/α1 selectivity of 18.
